# According to US20250066356A1, “LRRK2 INHIBITORS” (INTERLINE THERAPEUTICS, INC., priority 2022, published 2025):
# How the values were obtained:
# LRRK2 wild type enzyme = LRRK2 wild type enzyme (Homo sapiens, UniProt Q5S007); assay: LRRK2 biochemical assay (LanthaScreen TR-FRET, LRRKtide substrate); conditions: LRRK2 inhibition; 3 nM LRRK2, 400 nM LRRKtide, 25 μM ATP, 120 min, 23° C.
# Procedure: 10 mM compound solution was prepared in DMSO. An 11-point, 3-fold dilution was performed, with highest concentration at 10 μM. A 10 mM compound DMSO solution was added to Labcyte LDV plate and the compound concentration of source plate was 10 mM. The 1 st compound concentration of Inter plate (Labcyte 384 well PP plate) was 4.938×10^−1 mM which was prepared by transferring 1.5 μL of 10 mM compound from source plate to 28.9 μL DMSO. The 2nd compound concentration of Inter plate was 1.829×10^−2 mM which was prepared by transferring 60 nL of 10 mM compound from source plate to 32.7 μL DMSO. The 3rd compound concentration of Inter plate was 6.774×10^−4 mM which was prepared by transferring 2.5 nL of 10 mM compound from source plate to 36.9 μL DMSO. 100 nL of reference compound was dispensed in column 1 for low control wells and 100 nL of DMSO in column 24 for high control wells. Compounds were dispensed to column 2 to 23 of assay plate and backfilled with DMSO to a total volume of 100 nL.
# A 2×LRRK2 enzyme solution (final concentration 3 nM) was prepared in assay buffer (Tris-HCl pH8.0: 50 mM, MgCl2: 5 mM, EDTA: 1 mM, Brij-35: 0.01%, 2 mM DTT). A 2× substrate solution was prepared: LRRK2 tide substrate (final concentration 400 nM) and ATP (final concentration 25 μM) in assay buffer. 5 μL 2×LRRK2 enzyme solution was dispensed to each well in assay plate by Multidrop. Assay plate was spun at 1,000 rpm for 1 min and incubated for 15 min at 23° C. 5 μL 2×ATP/LRRKtide solution was dispensed to each well in assay plate by Multidrop. Assay plate was spun at 1,000 rpm for 1 min and incubated for 120 min at 23° C.
# A 2× detection solution was prepared: Tb-pERM (pLRRKtide) antibody (final concentration 0.25 nM) and EDTA (final concentration 10 mM) in TR-FRET dilution buffer. 10 μL 2× detection solution was dispensed to each well in assay plate to stop kinase reaction by Multidrop. Assay plate was spun at 1,000 rpm for 1 min and incubate for 30 min at 23° C. Assay plate was then read on Envision configured for LanthaScreen® TR-FRET.
# [1] = target: T1, phosphorylation at Ser935 on wild type LRRK2 overexpressed in recombinant HEK-293T cells (Homo sapiens, UniProt Q5S007); assay: pS935 LRRK2 Cell Assay (HTRF); type: cell-based; conditions: LRRK2 inhibition; pS935 LRRK2 in transfected HEK293T cells, 2 hours compound incubation
# T1 construct: host or cells: HEK293T, transient transfection
# Source text: The following protocol describes an in-vitro method for measuring phosphorylation at Ser935 on wild type LRRK2 overexpressed in recombinant HEK-293T cells. The method is based on HTRF technology, which combines Fluorescence Resonance Energy Transfer (FRET) with Time-Resolved measurement (TR). Phospho-LRRK2 (Ser935) is detected in a sandwich assay format using two different specific antibodies, one labelled with Eu^3+-Cryptate (donor) and the second with d2 (acceptor). When the fluorophores are in close proximity, excitation of the donor with a light source (flash lamp) stimulates FRET to the acceptor, which in turn fluoresces at a specific wavelength (665 nm). The fluorescence emission at 615 nm from the donor is also measured to allow ratiometric reduction of data. The specific signal is proportional to phospho-LRRK2 (Ser935).
# Plasmid transient transfection: DMEM medium, FBS, DPBS, Trans-IT, OPTI-MEM reagents were allowed to warm to room temperature. HEK293T cells were cultured in DMEM+10% FBS complete medium in T150 flasks till around 80% confluency before transfection. Then cells were washed with 10 mL PBS and detached with 3 mL 0.25% typinsin. 30×10E6 HEK293T cells were seeded in DMEM+10% FBS complete medium to a 15 cm dish.
# DNA, TransIT-LT1, OPTI-MEM complex were prepared: […] OPTI-MEM was added to a 15 mL cone tube, then […] plasmid was added to OPTI-MEM and mixed, followed by addition of 60 L TransIT-LT1 to the plasmid OPTI-MEM mixture and mixing. The resulting mixture was incubated for 15 minutes.
# The above plasmid, DNA and OPTI-MEM mixture was added dropwise to the 15 cm dish, ensuring the drops were evenly distributed. The culture dish was gently rocked back and forth and from left to right to evenly distribute the complex. The transfected dish was incubated for 24 hours at 37° C., and 5% CO2.
# Transfected HEK293T was collected in the 15 cm dish. Media was aspirated from tissue culture dish, and washed by dispensing 10 mL 1×DPBS into 15 cm dish. 1×DPBS was aspirated and 3 mL trypsin was dispensed to 15 cm dish. The dish was incubated with trypsin at room temperature for 3 min until the cells were detached. 10 mL of DMEM+10% FBS medium were added to 15 cm dish and triturated to ensure homogenous cell suspensions.
# Homogenous cell suspensions were transferred to a 50 mL tube, and centrifuged for 5 minutes at 1,000 rmp/min. The supernatant was aspirated and resuspended with 20 mL complete medium. 1 mL of cell suspension was transferred for cell counting. The cell suspension was diluted to 2×10E5 cells/ml. 50 L cell suspensions were added to a 384-well plate. The plate was quick spun at 800 rpm for 1 minute, then incubate overnight at 37° C., 5% CO2.
# Compound dispensing: compound was diluted (10 mM DMSO stock solution) and added to assay plate (top concentration: 10 μM, 3 fold serial dilution, 9 doses) with duplicates by Tecan liquid handler. The DMSO concentration of each well was normalized to 0.2%. Plates were quick spun at 1,000 rpm for 1 minute. Plates were incubated at 37° C., 5% CO2 for 2 hours.
# 1× lysis buffer solution supplemented with blocking reagent was prepared (e.g. 1 mL lysis buffer 4×+3 mL water+40 L stock blocking reagent 100×). Antibodies working solution was prepared by diluting 40-fold d2 and Cryptate antibodies with detection buffer (e.g. 1520 L detection buffer+40 L d2-antibody stock solution+[…] Cryptate-antibody stock solution).
# After 2 hours incubation, cell plates were taken out from the incubator. Medium was removed by plate washer, then 16 µL of supplemented lysis buffer was added 1× to each well and incubated for 30 minutes at room temperature under shaking (800 rpm/min). 4 µL of antibodies working solution was added to each well, covered with a top seal and incubated overnight in 23° C. incubator.
# HTRF signal was read (665 nm and 615 nm) on Wallac 2104 EnVision® multilabel reader. Data were analyzed by XL fit software.
# T1 sequence (Q5S007 whole entry): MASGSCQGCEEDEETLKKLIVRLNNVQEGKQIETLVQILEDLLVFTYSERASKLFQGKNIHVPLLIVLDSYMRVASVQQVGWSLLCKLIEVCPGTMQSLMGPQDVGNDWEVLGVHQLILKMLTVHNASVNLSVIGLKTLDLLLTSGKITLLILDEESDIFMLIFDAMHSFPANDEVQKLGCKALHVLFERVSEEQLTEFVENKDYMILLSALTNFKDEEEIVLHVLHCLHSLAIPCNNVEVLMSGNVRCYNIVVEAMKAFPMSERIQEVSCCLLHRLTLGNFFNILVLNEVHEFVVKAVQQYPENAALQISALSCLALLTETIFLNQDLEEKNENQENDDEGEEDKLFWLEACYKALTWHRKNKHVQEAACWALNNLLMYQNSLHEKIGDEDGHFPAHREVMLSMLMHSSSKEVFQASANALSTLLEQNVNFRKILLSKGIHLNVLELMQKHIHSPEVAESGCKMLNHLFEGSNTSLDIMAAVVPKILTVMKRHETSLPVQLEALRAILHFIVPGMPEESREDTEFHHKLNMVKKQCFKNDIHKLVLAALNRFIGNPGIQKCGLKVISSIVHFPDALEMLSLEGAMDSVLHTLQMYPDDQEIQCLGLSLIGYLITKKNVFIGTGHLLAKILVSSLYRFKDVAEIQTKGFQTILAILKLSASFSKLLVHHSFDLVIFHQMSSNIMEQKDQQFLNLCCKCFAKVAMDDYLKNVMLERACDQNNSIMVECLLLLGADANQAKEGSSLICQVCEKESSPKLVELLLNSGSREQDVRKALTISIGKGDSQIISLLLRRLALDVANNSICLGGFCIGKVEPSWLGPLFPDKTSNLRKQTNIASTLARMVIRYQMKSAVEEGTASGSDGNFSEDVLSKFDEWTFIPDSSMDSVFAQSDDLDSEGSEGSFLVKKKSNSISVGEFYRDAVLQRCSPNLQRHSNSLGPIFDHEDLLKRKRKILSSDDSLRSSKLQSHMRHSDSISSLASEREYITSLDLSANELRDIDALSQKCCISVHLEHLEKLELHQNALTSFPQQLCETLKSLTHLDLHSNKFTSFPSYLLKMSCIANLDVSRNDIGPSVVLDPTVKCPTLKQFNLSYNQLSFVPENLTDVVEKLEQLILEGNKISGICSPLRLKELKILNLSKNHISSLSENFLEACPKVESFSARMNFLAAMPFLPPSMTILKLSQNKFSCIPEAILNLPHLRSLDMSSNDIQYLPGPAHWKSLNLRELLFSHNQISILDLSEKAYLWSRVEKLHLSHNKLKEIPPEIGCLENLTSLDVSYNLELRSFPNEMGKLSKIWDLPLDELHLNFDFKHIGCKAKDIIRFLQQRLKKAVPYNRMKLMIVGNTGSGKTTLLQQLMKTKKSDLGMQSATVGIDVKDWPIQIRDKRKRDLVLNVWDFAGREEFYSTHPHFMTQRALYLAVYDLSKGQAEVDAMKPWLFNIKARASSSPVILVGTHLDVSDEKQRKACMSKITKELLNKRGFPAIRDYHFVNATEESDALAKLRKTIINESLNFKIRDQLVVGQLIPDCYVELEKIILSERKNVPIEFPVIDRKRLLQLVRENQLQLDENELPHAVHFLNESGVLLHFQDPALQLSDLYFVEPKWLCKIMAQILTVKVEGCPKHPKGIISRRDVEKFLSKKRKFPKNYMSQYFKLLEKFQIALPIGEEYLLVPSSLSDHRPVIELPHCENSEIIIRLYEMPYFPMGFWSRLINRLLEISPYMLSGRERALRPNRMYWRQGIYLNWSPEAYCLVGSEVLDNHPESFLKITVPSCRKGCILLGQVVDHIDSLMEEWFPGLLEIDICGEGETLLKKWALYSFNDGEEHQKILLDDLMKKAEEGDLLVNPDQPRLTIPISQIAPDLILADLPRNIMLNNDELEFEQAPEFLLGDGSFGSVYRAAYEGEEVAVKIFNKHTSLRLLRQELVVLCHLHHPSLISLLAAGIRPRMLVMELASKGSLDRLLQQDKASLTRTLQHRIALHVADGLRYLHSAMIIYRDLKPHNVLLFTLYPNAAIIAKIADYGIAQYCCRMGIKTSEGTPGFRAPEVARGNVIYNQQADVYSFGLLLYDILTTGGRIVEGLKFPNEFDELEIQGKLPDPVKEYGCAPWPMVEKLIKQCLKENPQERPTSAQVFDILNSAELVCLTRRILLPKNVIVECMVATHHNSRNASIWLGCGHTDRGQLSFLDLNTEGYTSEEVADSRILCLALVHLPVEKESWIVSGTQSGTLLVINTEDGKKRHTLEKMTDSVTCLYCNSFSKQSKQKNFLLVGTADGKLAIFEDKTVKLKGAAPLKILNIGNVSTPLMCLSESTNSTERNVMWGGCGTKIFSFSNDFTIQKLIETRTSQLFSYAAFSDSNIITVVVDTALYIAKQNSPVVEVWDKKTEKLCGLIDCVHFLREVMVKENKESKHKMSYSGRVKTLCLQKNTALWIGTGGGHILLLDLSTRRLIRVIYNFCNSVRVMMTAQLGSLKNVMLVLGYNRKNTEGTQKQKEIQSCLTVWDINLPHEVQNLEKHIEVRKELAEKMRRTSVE
# Chain of LRRK2 wild type enzyme (Q5S007 whole entry): as above
Compound,IC50 (LRRK2 wild type enzyme) [nM],IC50 [1] [nM]
"C[C@@H]1C[C@H](n2c(Cc3noc(N4CCC(O)C4)n3)nc3cnc4ccc(C#N)cc4c32)CCO1 (mixture of isomers) [Compound 12, 2-({5-[(3RS)-3-hydroxypyrrolidin-1-yl]-1,2,4-oxadiazol-3-yl}methyl)-1-[(2R,4R)-2-methyloxan-4-yl]-1H-imidazo[4,5-c]quinoline-8-carbonitrile]",1.36,811
"C[C@@H]1CC(n2c(Cn3nccc3NS(C)(=O)=O)nc3cnc4ccc(C#N)cc4c32)CCO1 (stereo in doubt) [Compound 16, N-(1-{[8-cyano-1-(2-methyloxan-4-yl)-1H-imidazo[4,5-c]quinolin-2-yl]methyl}-1H-pyrazol-5-yl)methanesulfonamide]",671,
"C[C@@H]1C[C@H](n2c(Cc3noc(N4CC(O)C4)n3)nc3cnc4ccc(C#N)cc4c32)CCO1 [Compound 1, 2-{[5-(3-hydroxyazetidin-1-yl)-1,2,4-oxadiazol-3-yl]methyl}-1-[(2R,4R)-2-methyloxan-4-yl]-1H-imidazo[4,5-c]quinoline-8-carbonitrile]",0.976,664
"C[C@@H]1C[C@H](n2c(Cn3cccc(C(=O)O)c3=O)nc3cnc4ccc(C#N)cc4c32)CCO1 [Compound 2, 1-({8-cyano-1-[(2R,4R)-2-methyloxan-4-yl]-1H-imidazo[4,5-c]quinolin-2-yl}methyl)-2-oxo-1,2-dihydropyridine-3-carboxylic acid]",106,
"C[C@@H]1C[C@H](n2c(Cc3noc(N4CC(O)C4)n3)nc3cnc4ccc(Cl)cc4c32)CCO1 [Compound 3, 1-[3-({8-chloro-1-[(2R,4R)-2-methyloxan-4-yl]-1H-imidazo[4,5-c]quinolin-2-yl}methyl)-1,2,4-oxadiazol-5-yl]azetidin-3-ol]",0.798,61.5
"C[C@@H]1C[C@H](n2c(Cn3ccc(NS(C)(=O)=O)n3)nc3cnc4ccc(C#N)cc4c32)CCO1 [Compound 4, N-(1-{[8-cyano-1-(2-methyloxan-4-yl)-1H-imidazo[4,5-c]quinolin-2-yl]methyl}-1H-pyrazol-3-yl)methanesulfonamide]",0.888,458
"C[C@@H]1C[C@H](n2c(Cc3cn(C4CN(S(C)(=O)=O)C4)nn3)nc3cnc4ccc(C#N)cc4c32)CCO1 [Compound 5, 2-{[1-(1-methanesulfonylazetidin-3-yl)-1H-1,2,3-triazol-4-yl]methyl}-1-[(2R,4R)-2-methyloxan-4-yl]-1H-imidazo[4,5-c]quinoline-8-carbonitrile]",0.635,324
"C[C@@H]1C[C@H](n2c(Cc3ccc(NS(C)(=O)=O)nc3)nc3cnc4ccc(C#N)cc4c32)CCO1 [Compound 6, N-(5-{[8-cyano-1-(2-methyloxan-4-yl)-1H-imidazo[4,5-c]quinolin-2-yl]methyl}pyridin-2-yl)methanesulfonamide]",3.94,4380
"C[C@@H]1C[C@H](n2c(Cc3n[nH]c(=O)o3)nc3cnc4ccc(C#N)cc4c32)CCO1 [Compound 7, 1-[(2R,4R)-2-methyloxan-4-yl]-2-[(5-oxo-4,5-dihydro-1,3,4-oxadiazol-2-yl)methyl]-1H-imidazo[4,5-c]quinoline-8-carbonitrile]",1.49,466
"C[C@@H]1C[C@H](n2c(Cc3cnn(C4COC4)c3)nc3cnc4ccc(C#N)cc4c32)CCO1 [Compound 8, 1-[(2R,4R)-2-methyloxan-4-yl]-2-{[1-(oxetan-3-yl)-1H-pyrazol-4-yl]methyl}-1H-imidazo[4,5-c]quinoline-8-carbonitrile]",6.47,618
"C[C@@H]1C[C@H](n2c(Cc3noc(N4CCN(C)C(=O)C4)n3)nc3cnc4ccc(C#N)cc4c32)CCO1 [Compound 9, 2-{[5-(4-methyl-3-oxopiperazin-1-yl)-1,2,4-oxadiazol-3-yl]methyl}-1-[(2R,4R)-2-methyloxan-4-yl]-1H-imidazo[4,5-c]quinoline-8-carbonitrile]",1.69,616
"C[C@@H]1C[C@H](n2c(Cc3noc(C4(S(C)(=O)=O)CC4)n3)nc3cnc4ccc(Cl)cc4c32)CCO1 [Compound 10, 3-({8-chloro-1-[(2R,4R)-2-methyloxan-4-yl]-1H-imidazo[4,5-c]quinolin-2-yl}methyl)-5-(1-methanesulfonylcyclopropyl)-1,2,4-oxadiazole]",0.299,10.3
"C[C@@H]1C[C@H](n2c(Cc3noc(N4CCC(O)CC4)n3)nc3cnc4ccc(C#N)cc4c32)CCO1 [Compound 11, 2-{[5-(4-hydroxypiperidin-1-yl)-1,2,4-oxadiazol-3-yl]methyl}-1-[(2R,4R)-2-methyloxan-4-yl]-1H-imidazo[4,5-c]quinoline-8-carbonitrile]",2.26,270
"C[C@@H]1C[C@H](n2c(Cc3noc(C4(S(C)(=O)=O)CC4)n3)nc3cnc4ccc(C#N)cc4c32)CCO1 [Compound 13, 2-{[5-(1-methanesulfonylcyclopropyl)-1,2,4-oxadiazol-3-yl]methyl}-1-[(2R,4R)-2-methyloxan-4-yl]-1H-imidazo[4,5-c]quioline-8-carbonitrile]",0.449,23.7
"C[C@@H]1C[C@H](n2c(Cc3cc(CCS(C)(=O)=O)on3)nc3cnc4ccc(C#N)cc4c32)CCO1 [Compound 20, 2-{[5-(2-methanesulfonylethyl)-1,2-oxazol-3-yl]methyl}-1-[(2R,4R)-2-methyloxan-4-yl]-1H-imidazo[4,5-c]quinoline-8-carbonitrile]",0.596,
"C[C@@H]1C[C@H](n2c(Cc3ccc(S(C)(=O)=O)cn3)nc3cnc4ccc(C#N)cc4c32)CCO1 [Compound 22, 2-[(5-methanesulfonylpyridin-2-yl)methyl]-1-[(2R,4R)-2-methyloxan-4-yl]-1H-imidazo[4,5-c]quinoline-8-carbonitrile]",0.579,
